According to patent US20210246455A1, “MULTIPLEX ASSAY” (priority 2017, published 2021):
Entries after “also recorded” stand apart in the source; their conditions may differ. Like-named read-outs stand apart in the source and are kept apart here.

Legend:
[1] = tested on: 53BP1 foci (DNA double strand breaks) in U2OS^A:Tox^DUPR reporter cells; test: 53BP1-mCerulean foci per nuclei in U2OS^A:Tox^DUPR reporter cells; type: cell-based, human; conditions: for number of 53BP1 foci per nuclei: exposed for 8 hr, compared to DMSO/vehicle
Experimental: U2OS acceptor cells were co-transfected a construct containing the recombinase B×b1 and a mutlicistronic Tox reporter (named U2OS^A:Tox^DUPR) carrying three fluorescently labeled proteins: 53BP1-mCerulean that binds to DNA double strand breaks, H2B-mCherry and XBP1Δ-Venus which is a UPR stress related sensor. […] NCS inhibits DNA synthesis, G2 cycle arrest, apoptosis. […] Cells were plated in glass bottom well 384 well plates. To evaluate the specificity of the reporter, together with DNA inducers, three other compounds were used as controls. Thapsigargin, which induced UPR-related stress by inhibiting calcium uptake into ER (Ca^2+ is chaperone cofactor so protein folding is inhibited), tunicamycin that is also involved in UPR-related stress by inhibiting glycosylation of newly synthesized proteins, and aphidicolin which inhibits DNA replication in eukaryotes. All compounds were tested in tetraplicates in four ten-fold serial dilutions with data collection 8 hour after compound addition. Images were acquired in a Nikon Ti-E inverted Microscope equipped with motorized stage with autofocus and OkoLab stage top environmental control chamber (supplied with CO2 and temperature controlled for live cell imaging) (FIG. 11A).
The number of 53BP1-mCerulean was used as a metric for double strand breaks and DNA damage. For each assay, the images were analyzed using the open source software CellProfiler for quantification of the number of foci per nuclei and the data generated was further processed to determine compound EC50S.
Image analysis was conducted using the open source software CellProfiler. After importing the images, nuclei were identified from the H2B-mCherry images as primary objects, followed by enhancement of mCerulean structures, and detection of these enhanced structures as objects. The nuclei and the foci are related and the number of children (foci) per nuclei is counted. Data from CellProfiler was exported to Python programming language for further computation.
Using Python, the data was grouped by well and the average number of foci/nuclei determined. The wells that corresponded to the same conditions were grouped. All the data was exported to GraphPad Prism 7.0 software to generate plots. A non-linear regression was used to fit the data and to calculate the concentration where we observe 50% activity of the enhancer (EC50S) (FIG. 11B)

[2] = tested on: Ras-MAPK pathway in HEK293 multicolor stable cell line expressing KRas(G12C), C-Raf, Mek and Erk reporters; test: Live-cell imaging of 4-color MAPK reporter cell line (reporter localization); type: cell-based, human; conditions: for CRaf localization / Erk localization / KRas localization: treated for four or nine hours, relative to control
Experimental: The two-color stable cell lines were plated in 96 well glass-bottom plates overnight and treated with doxycycline at 1 μg/m1 to induce fluorescent reporter expression. Cells were treated with different compounds for four or nine hours. Cells were imaged with an epifluorescence Nikon™microscope with an OKOLab™ incubator system and images were acquired using a Plan Fluor™40× objective and NIS-Elements® software (Nikon™). An analogous procedure, using N-terminal tagged KRas(G12C), CRaf, Mek and Erk cloned into the multicistronic construct, was used to generate monoclonal, inducible 4-color cell lines with approximately balanced reporter construct expression level (FIG. 4 and FIG. 5, control)
The 4-color lines were used to visualize the MAPK pathway in live cells. HEK293 multicolor stable cell line expressing KRas(G12C), C-Raf, Mek and Erk reporters show correct localization of the 4 proteins at the plasma membrane, plasma membrane and cytoplasm, cytoplasm, nucleus, respectively (FIG. 5). Monitoring of cells under the microscope allowed visualization of the response to Ras-MAPK pathway inhibitors. To monitor response to inhibitors, after protein induction cell were treated with: GDC-0879, FR180204, lovastatin and PD0325901 for four or nine hours.

[3] = tested on: MAPK pathway activation (mCherry-Erk nuclear localization) in U2OS MAPK R19 cells expressing K-Ras(wt); test: MAPK reporter assay, nuclear versus cytoplasmic mCherry-Erk, U2OS MAPK R19; type: cell-based; conditions: Homo sapiens, read-out: IC50 (inhibition of nuclear localization of mCherry-Erk)
Experimental: (§1) Three MAPK reporter cell lines were used to visualize the MAPK pathway in live cells and to analyze dose responses of MAPK inhibitors. U2OS MAPK R19, R20 and R21 multicolor stable cell line expressing mCerulean-CRaf, untagged Mek, mCherry-Erk and Venus-KRas (wt, G12C and G12D, respectively) were plated in glass bottom well 96 well plates. Twenty-four hours after plating cells were treated with doxycycline at 1 μg/ml for 5 h to induce fluorescent reporter expression. Monitoring of cells under the microscope allowed visualization of the response to Ras-MAPK pathway inhibitors. Two inhibitors, Trametinib an inhibitor of Mekl and […], inhibitor of Mek1/2 were used in the assay. […]
(§2) For each assay, the images were analyzed using CellProfiler (open source software for image analysis, Kamensty, L. et al., Bioinformatics (2011)) for quantification of the ratio of nuclear versus cytoplasmic Erk fluorescence intensity and the data generated was further processed to determine compound IC50S.
(§3) Image analysis used the open source software CellProfiler. […] The nuclear area of each cell was subtracted from the cytoplasm area to give the final cytoplasm mask. mCherry intensity for the nucleus and the cytoplasm of each cell was calculated from the original mCherry-Erk image and the nuclear to cytoplasm ratio of mCherry intensity was calculated per cell and exported as a HDFS file for analysis. […]

[4] = tested on: MAPK pathway activation (mCherry-Erk nuclear localization) in U2OS MAPK R20 cells expressing K-Ras(G12C); test: MAPK reporter assay, nuclear versus cytoplasmic mCherry-Erk, U2OS MAPK R20; type: cell-based; conditions: Homo sapiens, read-out: IC50 (inhibition of nuclear localization of mCherry-Erk)
Experimental: as §1, §2, §3

[5] = tested on: MAPK pathway activation (mCherry-Erk nuclear localization) in U2OS MAPK R21 cells expressing K-Ras(G12D); test: MAPK reporter assay, nuclear versus cytoplasmic mCherry-Erk, U2OS MAPK R21; type: cell-based; conditions: Homo sapiens, read-out: IC50 (inhibition of nuclear localization of mCherry-Erk)
Experimental: as §1, §2, §3

[6] = tested on: MAPK signaling in cells expressing K-Ras(wt), K-Ras(G12C) and K-Ras(G12D); test: Imaging of mCherry-Erk localization in U2OS^A-Tet MAPK R19, R20 and R21 reporter cell lines; type: cell-based, human; conditions: exposed for 1 hr, compared to DMSO treated cells
Experimental: MAPK pathway inhibitors were tested for their ability to inhibit nuclear localization of mCherry-tagged ERK in three different cell lines expressing K-Ras wild type, K-Ras G12C or K-Ras G12D. To quantify these images we calculated the ratio of nuclear to cytoplasmic ERK in single cells for four images per sample and plotted the resulting values as a histogram.
as §1, §2

[7] = tested on: 53BP1 foci in Tox^DUPR reporter cells pooled with Tox^ORG reporter cells; test: Pooled assay, U2OS^A Tox^ORG and Tox^DUPR reporter cells mixed 1:1, 53BP1 foci per nuclei; type: cell-based, human
Experimental: U2OS^A:Tox^DUPR and U2OS^A:Tox^ORG were combined in a pooled assay with an aggregate of […] biosensors and phenotypic readouts (MTS-Venus, H2B-TagBFP, mCherry-LC3, 53BP1-cerulean, XBP1-Venus and H2B-mCherry) where DNA is differently labeled in each of the two reporter cell lines (FIG. 13).
The two U2OS^A Tox^ORG and Tox^DUPR reporter cell lines were mixed 1:1 and plated in 384 well plates 24 h before compound addition. […] NCS inhibits DNA synthesis, G2 cycle arrest, apoptosis. Both compounds are inducers of DNA double strand breaks and consequently increase the number of 53BP1 nuclear foci. Eight hours post compound addition, images were acquired in a Nikon Ti-E inverted Microscope equipped with motorized stage with autofocus and OkoLab stage top environmental control chamber (supplied with CO2 and temperature controlled for live cell imaging) (FIG. 14).

COc1cc([C@@H]2c3cc4c(cc3[C@@H](O[C@@H]3O[C@@H]5CO[C@@H](C)O[C@H]5[C@H](O)[C@H]3O)[C@H]3COC(=O)[C@H]23)OCO4)cc(OC)c1O [Etoposide]
EC50 ([1]; Homo sapiens, 8 hour after compound addition, read-out: EC50 (number of 53BP1 foci/nuclei)): 161 nM

Nc1[nH]nc2nnc(-c3c(-c4ccccc4)nn4ccccc34)cc12 [FR180204]
CRaf localization [2]: moderate increase of CRaf levels at the plasma membrane

CC[C@H](C)C(=O)O[C@H]1C[C@@H](C)C=C2C=C[C@H](C)[C@H](CC[C@@H]3C[C@@H](O)CC(=O)O3)[C@H]21 [Lovastatin]
displacement of KRas from the cell membrane ([2]; ***p<0.0001): significant displacement of KRas from the cell membrane | CRaf localization [2]: C-Raf is not enriched at the membrane | Erk localization [2]: changes its localization to the cytoplasm | KRas localization [2]: absence of KRas at the membrane

O=C(NOC[C@H](O)CO)c1ccc(F)c(F)c1Nc1ccc(I)cc1F [PD 0329501]
IC50 ([3]; 1 h): 9 nM | IC50 ([4]; 1 h): 13 nM | IC50 ([5]; 1 h): 76 nM | mCherry-Erk localization [6]: increase of mCherry-Erk at the cytoplasm | CRaf localization [2]: none of Mek upstream proteins (KRas and C-Raf) showed alteration in localization | Erk localization [2]: redistribution of the downstream effector, Erk, from the nucleus to the cytoplasm | KRas localization [2]: none of Mek upstream proteins (KRas and C-Raf) showed alteration in localization

CC(=O)Nc1cccc(-n2c(=O)n(C3CC3)c(=O)c3c(Nc4ccc(I)cc4F)n(C)c(=O)c(C)c32)c1 [Trametinib]
IC50 ([3]; cells expressing K-Ras(wt), 1 hour after compound addition): 9 nM | IC50 ([4]; cells expressing K-Ras(G12C), 1 hour after compound addition): 55 nM | IC50 ([5]; cells expressing K-Ras(G12D), 1 hour after compound addition): 28 nM

C[C@@]1(CO)[C@H](O)CC[C@@]2(C)[C@H]1CC[C@H]1C[C@@H]3C[C@@]12CC[C@]3(O)CO [aphidicolin]
number of 53BP1 foci per nuclei [1]: do not show any effect in the number of 53BP1 foci

C/C=C(/C)C(=O)O[C@H]1C(C)=C2[C@H]([C@@H]1OC(=O)CCCCCCC)[C@@](C)(OC(C)=O)C[C@H](OC(=O)CCC)[C@@]1(O)[C@H]2OC(=O)[C@@]1(C)O [thapsigargin, Thapsigargin]
number of 53BP1 foci per nuclei [1]: do not show any effect in the number of 53BP1 foci

neocarzinostatin [NCS]
EC50 (number of 53BP1 foci/nuclei) ([1]; 8 hour after compound addition): 0.257 µg/mL | number of 53BP1 foci per nuclei [1]: increase in the number of foci per nuclei | EC50 (number of 53BP1 foci/nuclei) ([1]; reporter cells assayed by itself (FIG. 11B)): 257 µg/mL | number of 53BP1 foci per nuclei ([7]; pooled Tox^ORG and Tox^DUPR cells, 8 hr, compared to vehicle): increase in the number of foci/nuclei specifically in Tox^DUPR reporter cells; also recorded: increase in the number of foci per nuclei | EC50 (number of 53BP1 foci/nuclei) ([7]; pooled with other reporter cell lines (FIG. 14), eight hours post compound addition): 376 µg/mL

tunicamycin
number of 53BP1 foci per nuclei [1]: do not show any effect in the number of 53BP1 foci
